Laboratory results as given in PubChem BioAssay AID2060910 (Molecular Pharmacology Branch, DTP, NCI, 2025).
pIC50: −log10 of the molar value.

Test system: 242566-281-R-J2-PDC complex spheroid viability
Test: Anticancer human tumor 242566-281-R-J2-PDC patient-derived pancreatic carcinoma cell line growth inhibition [RAS]
Conditions: for pIC50: curve of first compound; for viability, T/C: stronger effect = lower value
In short: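 Multi-cell-type spheroids: tumor cells plus HUVEC endothelial cells and mesenchymal stem cells. RAS-pathway inhibitors were combined with targeted agents, each dosed in half-log steps down from clinical Cmax, or from 10 microM when Cmax was unknown.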
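Also: spheroids exposed to compound for 7 days before readout.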
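For viability, T/C in this document: 100% = DMSO vehicle control wells.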

CCc1c2c(nc3ccc(O)cc13)-c1cc3c(c(=O)n1C2)COC(=O)[C@]3(O)CC + C=CC(=O)N1CCN(c2nc(OCC3CCCN3C)nc3c(F)c(-c4nc(N)cc(C)c4C(F)(F)F)c(Cl)cc23)C(C)C1 showed a pIC50 (second compound 0.00316 µM) of 7.50, a pIC50 (second compound 0.01 µM) of 7.46 and a pIC50 (second compound 0.0316 µM) of 7.31. The pIC50 (second compound 0.1 µM) was 7.46, the pIC50 (second compound 0.316 µM) was 7.39 and the pIC50 (second compound 1 µM) was 7.29. For the same compound, the viability, T/C (second compound 0.00316 µM, first compound 0.000949 µM) was 94%, the viability, T/C (second compound 0.00316 µM, first compound 0.003 µM) was 121% and the viability, T/C (second compound 0.00316 µM, first compound 0.00949 µM) was 84.4%. For the same compound, the viability, T/C (second compound 0.00316 µM, first compound 0.03 µM) was 51%, the viability, T/C (second compound 0.00316 µM, first compound 0.0949 µM) was 27.1% and the viability, T/C (second compound 0.00316 µM, first compound 0.3 µM) was 13.1%. It also gave a viability, T/C (second compound 0.01 µM, first compound 0.000949 µM) of 103%, a viability, T/C (second compound 0.01 µM, first compound 0.003 µM) of 133% and a viability, T/C (second compound 0.01 µM, first compound 0.00949 µM) of 82.4%. It also gave a viability, T/C (second compound 0.01 µM, first compound 0.03 µM) of 56.1%, a viability, T/C (second compound 0.01 µM, first compound 0.0949 µM) of 26.9% and a viability, T/C (second compound 0.01 µM, first compound 0.3 µM) of 12.3%. The viability, T/C (second compound 0.0316 µM, first compound 0.000949 µM) was 112%, the viability, T/C (second compound 0.0316 µM, first compound 0.003 µM) was 132% and the viability, T/C (second compound 0.0316 µM, first compound 0.00949 µM) was 83.3%. The viability, T/C (second compound 0.0316 µM, first compound 0.03 µM) was 67.1%, the viability, T/C (second compound 0.0316 µM, first compound 0.0949 µM) was 32.3% and the viability, T/C (second compound 0.0316 µM, first compound 0.3 µM) was 11.8%. It also gave a viability, T/C (second compound 0.1 µM, first compound 0.000949 µM) of 111%, a viability, T/C (second compound 0.1 µM, first compound 0.003 µM) of 129% and a viability, T/C (second compound 0.1 µM, first compound 0.00949 µM) of 104%. It also gave a viability, T/C (second compound 0.1 µM, first compound 0.03 µM) of 54%, a viability, T/C (second compound 0.1 µM, first compound 0.0949 µM) of 23.1% and a viability, T/C (second compound 0.1 µM, first compound 0.3 µM) of 16%. It also gave a viability, T/C (second compound 0.316 µM, first compound 0.000949 µM) of 105%, a viability, T/C (second compound 0.316 µM, first compound 0.003 µM) of 137% and a viability, T/C (second compound 0.316 µM, first compound 0.00949 µM) of 77.1%. The viability, T/C (second compound 0.316 µM, first compound 0.03 µM) was 63.7%, the viability, T/C (second compound 0.316 µM, first compound 0.0949 µM) was 28.8% and the viability, T/C (second compound 0.316 µM, first compound 0.3 µM) was 14.7%. The viability, T/C (second compound 1 µM, first compound 0.000949 µM) was 104%, the viability, T/C (second compound 1 µM, first compound 0.003 µM) was 114% and the viability, T/C (second compound 1 µM, first compound 0.00949 µM) was 86.7%. It also gave a viability, T/C (second compound 1 µM, first compound 0.03 µM) of 66%, a viability, T/C (second compound 1 µM, first compound 0.0949 µM) of 32.7% and a viability, T/C (second compound 1 µM, first compound 0.3 µM) of 10.9%.
With CCN1CCN(Cc2ccc(Nc3ncc(F)c(-c4cc(F)c5nc(C)n(C(C)C)c5c4)n3)nc2)CC1 + CCn1c(-c2cccnc2C(C)OC)c2c3cc(ccc31)N1CCOC(CC(NC(=O)C(C(C)C)N(C)C(=O)C3(F)CCN(C(=O)C#CC(C)(C)N(C)C)CC3)C(=O)N3CCCC(N3)C(=O)OCC(C)(C)C2)C1 the pIC50 (second compound 0.000949 µM) was less than 6.00, the pIC50 (second compound 0.003 µM) was less than 6.00 and the pIC50 (second compound 0.00949 µM) was less than 6.00. The pIC50 (second compound 0.03 µM) was less than 6.00, the pIC50 (second compound 0.0949 µM) was less than 6.00 and the pIC50 (second compound 0.3 µM) was less than 6.00. For the same compound, the viability, T/C (second compound 0.000949 µM, first compound 0.00316 µM) was 102%, the viability, T/C (second compound 0.000949 µM, first compound 0.01 µM) was 92.2% and the viability, T/C (second compound 0.000949 µM, first compound 0.0316 µM) was 78.6%. For the same compound, the viability, T/C (second compound 0.000949 µM, first compound 0.1 µM) was 88.5%, the viability, T/C (second compound 0.000949 µM, first compound 0.316 µM) was 102% and the viability, T/C (second compound 0.000949 µM, first compound 1 µM) was 99.6%. For the same compound, the viability, T/C (second compound 0.003 µM, first compound 0.00316 µM) was 109%, the viability, T/C (second compound 0.003 µM, first compound 0.01 µM) was 93.5% and the viability, T/C (second compound 0.003 µM, first compound 0.0316 µM) was 81.5%. For the same compound, the viability, T/C (second compound 0.003 µM, first compound 0.1 µM) was 88.2%, the viability, T/C (second compound 0.003 µM, first compound 0.316 µM) was 103% and the viability, T/C (second compound 0.003 µM, first compound 1 µM) was 94.7%. The viability, T/C (second compound 0.00949 µM, first compound 0.00316 µM) was 102%, the viability, T/C (second compound 0.00949 µM, first compound 0.01 µM) was 99.4% and the viability, T/C (second compound 0.00949 µM, first compound 0.0316 µM) was 93.1%. It also gave a viability, T/C (second compound 0.00949 µM, first compound 0.1 µM) of 86.5%, a viability, T/C (second compound 0.00949 µM, first compound 0.316 µM) of 98.4% and a viability, T/C (second compound 0.00949 µM, first compound 1 µM) of 109%. For the same compound, the viability, T/C (second compound 0.03 µM, first compound 0.00316 µM) was 97.5%, the viability, T/C (second compound 0.03 µM, first compound 0.01 µM) was 94.7% and the viability, T/C (second compound 0.03 µM, first compound 0.0316 µM) was 85.8%. The viability, T/C (second compound 0.03 µM, first compound 0.1 µM) was 97.2%, the viability, T/C (second compound 0.03 µM, first compound 0.316 µM) was 88.2% and the viability, T/C (second compound 0.03 µM, first compound 1 µM) was 117%. For the same compound, the viability, T/C (second compound 0.0949 µM, first compound 0.00316 µM) was 83.8%, the viability, T/C (second compound 0.0949 µM, first compound 0.01 µM) was 92.8% and the viability, T/C (second compound 0.0949 µM, first compound 0.0316 µM) was 93.4%. For the same compound, the viability, T/C (second compound 0.0949 µM, first compound 0.1 µM) was 93.1%, the viability, T/C (second compound 0.0949 µM, first compound 0.316 µM) was 83.8% and the viability, T/C (second compound 0.0949 µM, first compound 1 µM) was 107%. For the same compound, the viability, T/C (second compound 0.3 µM, first compound 0.00316 µM) was 83.5%, the viability, T/C (second compound 0.3 µM, first compound 0.01 µM) was 79.2% and the viability, T/C (second compound 0.3 µM, first compound 0.0316 µM) was 79.5%. It also gave a viability, T/C (second compound 0.3 µM, first compound 0.1 µM) of 77.7%, a viability, T/C (second compound 0.3 µM, first compound 0.316 µM) of 93% and a viability, T/C (second compound 0.3 µM, first compound 1 µM) of 116%.
